The subject of data set [1] is Bacillus subtilis ATCC 6633. As to the kind of experiment: Antimicrobial activity, serial dilution method on agar plate. It is filed as cell-based. The settings on record: ATCC6633, read-out: Minimum Inhibitory Concentration (MIC).
Another data set deals with Bacillus anthracis. As to the kind of experiment: microbe, parasite or virus in culture. Conditions: read-out: Minimum Inhibitory Concentration (MIC). It is filed as cell-based.
In data set [2] the test system is Bacillus cereus ATCC 11778. Briefly: Antimicrobial activity, serial dilution method on agar plate. It is filed as cell-based. The settings on record: ATCC11778, read-out: Minimum Inhibitory Concentration (MIC).
Data set [3] deals with Staphyrococcus aureus FDA 209p. Described as above. Conditions: read-out: Minimum Inhibitory Concentration (MIC). It is filed as cell-based.
Data set [4] relates to Staphyrococcus aureus Newmann. The description is as above. It is filed as cell-based. Conditions: read-out: Minimum Inhibitory Concentration (MIC).
Data set [5] has as its system Streptococcus faecalis IFO 12580. The data set is described as above. It is filed as cell-based. Conditions: Enterococcus faecalis, IFO12580, read-out: Minimum Inhibitory Concentration (MIC).
A further data set has as its system Streptomyces viridans. The data set is described as above. It is filed as cell-based. The settings on record: read-out: Minimum Inhibitory Concentration (MIC).
For the next data set, the system named is Sarcina lutea ATCC 9341. The data set is described as above. It is filed as cell-based. The settings on record: Micrococcus luteus, ATCC9341, read-out: Minimum Inhibitory Concentration (MIC).
The subject of data set [6] is Micrococcus flavus ATCC 10240a. Described as above. It is filed as cell-based. Conditions: ATCC10240A, read-out: Minimum Inhibitory Concentration (MIC).
In data set [7] the test system is Serratia marcescens ATCC 14756. The description is as above. The data set is classed as cell-based. Conditions: ATCC14756, read-out: Minimum Inhibitory Concentration (MIC).
The test system of data set [8] is Salmonella typhimurium kh. Described as above. It is filed as cell-based. Conditions: Salmonella enterica, read-out: Minimum Inhibitory Concentration (MIC).
The next data set has as its system Enterbactor cloacae 2. Described as above. The settings on record: read-out: Minimum Inhibitory Concentration (MIC). The data set is classed as cell-based.
Data set [9] has as its system Enterbactor aerogenes IFO 12979. The data set is described as above. It is filed as cell-based. The settings on record: read-out: Minimum Inhibitory Concentration (MIC).
Data set [10] deals with Klebsiella pneumoniae ST-101. The description is as above. It is filed as cell-based. The settings on record: ST101, read-out: Minimum Inhibitory Concentration (MIC).
The subject of a further data set is Esherichia coli NIHJ. The data set is described as above. The data set is classed as cell-based. Conditions: read-out: Minimum Inhibitory Concentration (MIC).
Data set [11] has as its system Esherichia coli NIHJ JC-2. The data set is described as above. The data set is classed as cell-based. Conditions: read-out: Minimum Inhibitory Concentration (MIC).
The test system of another data set is Proteus mirabilis 1287. The description is as above. The data set is classed as cell-based. The settings on record: read-out: Minimum Inhibitory Concentration (MIC).
In data set [12] the test system is Pseudomonas aeruginosa ATCC 10145. Described as above. The data set is classed as cell-based. Conditions: ATCC10145, read-out: Minimum Inhibitory Concentration (MIC).
In another data set the test system is Candida albicans KYU. The description is as above. The data set is classed as cell-based. Conditions: read-out: Minimum Inhibitory Concentration (MIC).
The next data set is described as follows: Acute toxicity. Conditions: rat, in vivo, rats, dd strain, 18 to 22 g, fasted 12 hours. On the procedure:
Further, the acute toxicity of the compounds of the present invention having the formula (I) was determined by intravenous administration (i.v.) and oral administration (p.o.) in 5 to 6 groups of rats (dd strain; body weight, 18 to 22 g; 10 rats in each group) which had been fasted for 12 hours prior to the test.

The mark [13] stands for this setting: iv, read-out: LD50 (50% lethal dose), i.v.
Setting [14] is: po, read-out: LD50 (50% lethal dose), p.o.

Usually LD50 stands for the dose at which mortality reaches 50%.

In brackets after ≈: the same amount, converted by molar mass. Like-named read-outs stand apart in the source and are kept apart here.

Regarding `CC(=O)Nc1ccc2c3c1c(=O)c(C(=O)O)cn3C1CCCCC21` (stereo not drawn) [Compound 8, 3-acetylamino-7a,8,9,10,11,11a-hexahydro-4-oxo-4H-pyrido[3,2,1-jk]carbazol-5-carboxylic acid], the MIC in data set [1] worked out at 3.2 µg/mL (≈ 9.81 µM); in the data set with Bacillus anthracis, 6.3 µg/mL (≈ 19.3 µM); in data set [2], 50 µg/mL (≈ 153 µM); in data set [3], 12.5 µg/mL (≈ 38.3 µM); in data set [4] it was 12.5 µg/mL (≈ 38.3 µM); in data set [5], 100 µg/mL (≈ 306 µM). Moreover, the MIC with Streptomyces viridans was 100 µg/mL (≈ 306 µM); in the data set on Sarcina lutea ATCC 9341, 50 µg/mL (≈ 153 µM); in [6], 50 µg/mL (≈ 153 µM); in [7] it was 3.2 µg/mL (≈ 9.81 µM); in data set [8] it was 6.3 µg/mL (≈ 19.3 µM); with Enterbactor cloacae 2, 6.3 µg/mL (≈ 19.3 µM). The MIC in data set [9] is 6.3 µg/mL (≈ 19.3 µM); in data set [10] it was 6.3 µg/mL (≈ 19.3 µM); with Esherichia coli NIHJ, 12.5 µg/mL (≈ 38.3 µM); in [11] it was 12.5 µg/mL (≈ 38.3 µM); in the data set on Proteus mirabilis 1287, 25 µg/mL (≈ 76.6 µM); in data set [12] it was more than 100 µg/mL. Further, the MIC with Candida albicans KYU is more than 500 µg/mL. Further, the LD50 came out at 110 mg/kg in “Acute toxicity” (setting [13]) and 3500 mg/kg in “Acute toxicity” (setting [14]).

On to `O=C(OCCBr)c1cn2c3c(cc(F)cc3c1=O)C1CCCCC12` (stereo not drawn) [Compound 9, β-bromoethyl 2-fluoro-7a,8,9,10,11,11a-hexahydro-4-oxo-4H-pyrido[3,2,1-jk]carbazol-5-carboxylate], for which the MIC is 12.5 µg/mL (≈ 31.7 µM) in data set [1]; 50 µg/mL (≈ 127 µM) in the data set on Bacillus anthracis; 100 µg/mL (≈ 254 µM) in [2]; 50 µg/mL (≈ 127 µM) in [3]; 50 µg/mL (≈ 127 µM) in data set [4]; more than 100 µg/mL in data set [5]. In addition, the MIC in the data set with Streptomyces viridans was more than 100 µg/mL; with Sarcina lutea ATCC 9341, 100 µg/mL (≈ 254 µM); in [6], 100 µg/mL (≈ 254 µM); in data set [7] it was 12.5 µg/mL (≈ 31.7 µM); in [8] it was 25 µg/mL (≈ 63.4 µM); in the data set with Enterbactor cloacae 2 it was 12.5 µg/mL (≈ 31.7 µM). Also, the MIC is 25 µg/mL (≈ 63.4 µM) in data set [9]; 25 µg/mL (≈ 63.4 µM) in data set [10]; 25 µg/mL (≈ 63.4 µM) in the data set on Esherichia coli NIHJ; 25 µg/mL (≈ 63.4 µM) in data set [11]; 50 µg/mL (≈ 127 µM) in the data set on Proteus mirabilis 1287; more than 100 µg/mL in data set [12]. Further, the MIC in the data set with Candida albicans KYU is more than 500 µg/mL. Further, the LD50 stood at 105 mg/kg in the data set “Acute toxicity” (setting [13]) and 3000 mg/kg in the data set “Acute toxicity” (setting [14]).

As to `NNC(=O)c1cn2c3c(cc(F)cc3c1=O)C1CCCCC12` (stereo not drawn) [Compound 10, 2-Fluoro-7a,8,9,10,11,11a-hexahydro-4-oxo-4H-pyrido[3,2,1-jk]carbazol-5-carbohydrazide], the MIC in [1] is 25 µg/mL (≈ 83 µM); in the data set with Bacillus anthracis, 100 µg/mL (≈ 332 µM); in [2], 100 µg/mL (≈ 332 µM); in data set [3], 50 µg/mL (≈ 166 µM); in data set [4], 50 µg/mL (≈ 166 µM); in [5], more than 100 µg/mL. For the same molecule, the MIC was more than 100 µg/mL with Streptomyces viridans; more than 100 µg/mL with Sarcina lutea ATCC 9341; more than 100 µg/mL in [6]; 25 µg/mL (≈ 83 µM) in [7]; 25 µg/mL (≈ 83 µM) in data set [8]; 12.5 µg/mL (≈ 41.5 µM) in the data set on Enterbactor cloacae 2. Also, the MIC in data set [9] is 12.5 µg/mL (≈ 41.5 µM); in data set [10] it was 12.5 µg/mL (≈ 41.5 µM); in the data set with Esherichia coli NIHJ, 25 µg/mL (≈ 83 µM); in [11], 25 µg/mL (≈ 83 µM); in the data set on Proteus mirabilis 1287, 50 µg/mL (≈ 166 µM); in data set [12], more than 100 µg/mL. In addition, the MIC with Candida albicans KYU is more than 500 µg/mL. Besides, the LD50 in the data set “Acute toxicity” (setting [13]) is 100 mg/kg; in the data set “Acute toxicity” (setting [14]) it was 3500 mg/kg.

With `O=C(NN=Cc1ccc([N+](=O)[O-])o1)c1cn2c3c(cc(F)cc3c1=O)C1CCCCC12` (stereo not drawn) [Compound 11], the MIC was 3.2 µg/mL (≈ 7.54 µM) in data set [1]; 6.3 µg/mL (≈ 14.8 µM) with Bacillus anthracis; 12.5 µg/mL (≈ 29.5 µM) in data set [2]; 12.5 µg/mL (≈ 29.5 µM) in data set [3]; 12.5 µg/mL (≈ 29.5 µM) in [4]; more than 100 µg/mL in data set [5]. For the same molecule, the MIC in the data set with Streptomyces viridans is more than 100 µg/mL; with Sarcina lutea ATCC 9341, 100 µg/mL (≈ 236 µM); in data set [6] it was 100 µg/mL (≈ 236 µM); in data set [7] it was 12.5 µg/mL (≈ 29.5 µM); in data set [8], 12.5 µg/mL (≈ 29.5 µM); in the data set on Enterbactor cloacae 2, 6.3 µg/mL (≈ 14.8 µM). Also, the MIC in [9] was 6.3 µg/mL (≈ 14.8 µM); in data set [10], 6.3 µg/mL (≈ 14.8 µM); in the data set on Esherichia coli NIHJ, 12.5 µg/mL (≈ 29.5 µM); in data set [11], 12.5 µg/mL (≈ 29.5 µM); with Proteus mirabilis 1287, 12.5 µg/mL (≈ 29.5 µM); in data set [12], more than 100 µg/mL. In addition, in the data set on Candida albicans KYU, the MIC is more than 500 µg/mL. The LD50 in the data set “Acute toxicity” (setting [13]) worked out at 180 mg/kg; in the data set “Acute toxicity” (setting [14]), 3000 mg/kg.

With `CC1CCN(CCOC(=O)c2cn3c4c(cc(F)cc4c2=O)C2CCCCC23)CC1` (stereo not drawn) [Compound 12], the MIC in [1] stood at 3.2 µg/mL (≈ 7.76 µM); with Bacillus anthracis, 6.3 µg/mL (≈ 15.3 µM); in data set [2], 6.3 µg/mL (≈ 15.3 µM); in data set [3], 6.3 µg/mL (≈ 15.3 µM); in data set [4], 6.3 µg/mL (≈ 15.3 µM); in data set [5] it was 50 µg/mL (≈ 121 µM). Further, the MIC was determined as 100 µg/mL (≈ 242 µM) in the data set on Streptomyces viridans; 50 µg/mL (≈ 121 µM) in the data set on Sarcina lutea ATCC 9341; 50 µg/mL (≈ 121 µM) in data set [6]; 12.5 µg/mL (≈ 30.3 µM) in data set [7]; 12.5 µg/mL (≈ 30.3 µM) in data set [8]; 6.3 µg/mL (≈ 15.3 µM) with Enterbactor cloacae 2. Moreover, the MIC in [9] is 6.3 µg/mL (≈ 15.3 µM); in data set [10], 6.3 µg/mL (≈ 15.3 µM); in the data set with Esherichia coli NIHJ, 6.3 µg/mL (≈ 15.3 µM); in data set [11] it was 6.3 µg/mL (≈ 15.3 µM); with Proteus mirabilis 1287, 12.5 µg/mL (≈ 30.3 µM); in data set [12], more than 100 µg/mL. In addition, the MIC in the data set on Candida albicans KYU is more than 500 µg/mL. Moreover, the median lethal dose (LD50) in “Acute toxicity” (setting [13]) turned out to be 130 mg/kg; in the data set “Acute toxicity” (setting [14]), 2000 mg/kg.

The values above are taken from US4293694A, “Pyrido[3,2,1-jk]carbazols” (Otsuka Pharmaceutical Co., Ltd., priority 1979, dated 1981).
